# Target: T1, active p38 alpha enzyme (Upstate Biotechnology) (Homo sapiens, UniProt Q16539)
# T1 construct: purchased Upstate Biotechnology
# Test: p38α biochemical assay (ATP turnover, luminescent detection, Cambrex PKlight)
# Conditions: p38α biochemical assay, Table 1 Biological Activity
# Experimental: The p38α biochemical assay employed is based on measurement of total ATP turnover following enzyme incubation with substrate in the presence of ATP with the use of a luminescent detection reagent (Cambrex PKlight). The assays were performed in 1536-well white opaque plates.
# The final volume was 7.5005 μL as prepared prepared from the addition of 5 ul of kinase reaction (p38 alpah+MapkapK2+ATP) with 0.0005 μL compound dissolved in DMSO, and 2.5 ul of the detection reagent. Assay buffer contains the following reagents to give final concentration in the assay: 200 mM Tris, 100 mM MgCl2, 1.5 mM EGTA, 4 mM CaCl2, 20 mM MOPS, 1 mM EDTA, 1% glycerol, 0.1% B-Mecaptoethanol, and 1 mg/ml BSA. Test compounds are pinned using proprietary pintool technology (Kalypsys, Inc) and delivered as […] amounts into the 5 ul mixture of active p38 alpha enzyme (Upstate Biotechnology) and MapkapK2 (Upstate Biotechnology) whole protein as a substrate for phosphorylation in the presence of 1.4 uM final concentration ATP. Reactions are incubated at 30C for 2 hours and detection reagent is added in 2.5 ul/well amounts. Assay is read using a Perkin Elmer Viewlux.
# T1 sequence (Q16539 whole entry): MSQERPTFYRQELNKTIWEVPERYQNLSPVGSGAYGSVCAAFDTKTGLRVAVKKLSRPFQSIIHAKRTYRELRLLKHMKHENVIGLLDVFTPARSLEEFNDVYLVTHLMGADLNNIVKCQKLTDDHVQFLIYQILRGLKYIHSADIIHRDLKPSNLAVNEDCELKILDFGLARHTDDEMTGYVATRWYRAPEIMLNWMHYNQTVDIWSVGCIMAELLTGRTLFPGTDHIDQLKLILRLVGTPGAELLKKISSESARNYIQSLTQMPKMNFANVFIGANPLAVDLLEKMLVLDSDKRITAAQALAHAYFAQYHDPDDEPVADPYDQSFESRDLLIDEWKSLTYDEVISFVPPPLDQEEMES
row,Compound,IC50 [µM]
1,CC(C)NC(=O)c1csc(-c2oc(CNC(=O)C(F)(F)F)nc2-c2ccc(F)cc2)n1 [Example 108],≤ 1
2,CC(C)NC(=O)c1csc(-c2oc(CNC(=O)c3ccc4ccccc4c3O)nc2-c2ccc(F)cc2)n1 [Example 245],> 1
3,Cc1cc(C(=O)NCc2nc(-c3ccc(F)cc3)c(-c3nc(C(=O)NC(C)C)cs3)o2)ccc1Br [Example 292],> 1
4,CC(C)NC(=O)c1csc(-c2oc(CNC(=O)c3ccccc3O)nc2-c2ccc(F)cc2)n1 [Example 125],> 1
5,COc1cc(/C=C/C(=O)NCc2nc(-c3ccc(F)cc3)c(-c3nc(C(=O)NC(C)C)cs3)o2)ccc1O [Example 261],≤ 1
6,"Cc1[nH]nc(-c2ccc(F)cc2)c1-c1nc(C(=O)NCc2cccnc2)cs1 [Example 76, 2-|3-(4-Fluoro-phenyl)-5-methyl-1H-pyrazol-4-yl|-thiazole-4-carboxylic acid (pyridin-3-ylmethyl)-amide]",≤ 1
7,CC(=O)Oc1cccc(C(=O)NCc2nc(-c3ccc(F)cc3)c(-c3nc(C(=O)NC(C)C)cs3)o2)c1 [Example 215],> 1
8,Cc1ccc(SCC(=O)NCc2onc(-c3ccc(F)cc3)c2-c2nc(C(=O)NC(C)C)cs2)cc1 [Example 704],> 1
9,CC(C)NC(=O)c1csc(-c2oc(CNC(=O)/C=C/c3ccccc3F)nc2-c2ccc(F)cc2)n1 [Example 178],≤ 1
10,CC(C)NC(=O)c1csc(-c2c(-c3ccc(F)cc3)noc2CNC(=O)c2cc(Cl)c(O)c(Cl)c2)n1 [Example 756],> 1
11,CC(C)NC(=O)c1csc(-c2oc(CN3CCN(C(=O)c4cc(F)c(F)cc4[N+](=O)[O-])CC3)nc2-c2ccc(F)cc2)n1 [Example 515],≤ 1
12,CC(C)NC(=O)c1csc(-c2oc(CNC(=O)C(NC(=O)OC(C)(C)C)C(C)C)nc2-c2ccc(F)cc2)n1 (centres unmarked) [Example 299],> 1
13,COC(=O)c1ccc(C(=O)NCc2onc(-c3ccc(F)cc3)c2-c2nc(C(=O)NC(C)C)cs2)cc1 [Example 689],> 1
14,CC(C)NC(=O)c1csc(-c2c(-c3ccc(F)cc3)noc2CNC(=O)c2cc([N+](=O)[O-])ccc2Cl)n1 [Example 746],> 1
15,Cc1ccc([N+](=O)[O-])c(C(=O)N2CCN(Cc3nc(-c4ccc(F)cc4)c(-c4nc(C(=O)NC(C)C)cs4)o3)CC2)c1 [Example 459],> 1
16,CCCCc1ccc(C(=O)N2CCN(Cc3nc(-c4ccc(F)cc4)c(-c4nc(C(=O)NC(C)C)cs4)o3)CC2)cc1 [Example 445],> 1
17,CC(C)NC(=O)c1csc(-c2c(-c3ccc(F)cc3)noc2CNC(=O)c2cn(C)cn2)n1 [Example 592],> 1
18,"Cc1onc(-c2ccc(Cl)cc2)c1-c1ccn(C(=O)NCCO)n1 [Example 5, 3-|3-(4-Chloro-phenyl)-5-methyl-isoxazol-4-yl|-pyrazole-1-carboxylic acid (2-hydroxy-ethyl)-amide]",≤ 1
19,COc1ccc(C(=O)NCc2nc(-c3ccc(F)cc3)c(-c3nc(C(=O)NC(C)C)cs3)o2)c(OC)c1 [Example 225],> 1
20,CC(C)NC(=O)c1csc(-c2oc(CNC(=O)C=O)nc2-c2ccc(F)cc2)n1 [Example 99],> 1
21,"CC(C)NC(=O)c1coc(-c2c(-c3ccc(F)cc3)noc2C2CCNCC2)n1 [Example 37, 2-|3-(4-Fluoro-phenyl)-5-piperidin-4-yl-isoxazol-4-yl|-oxazole-4-carboxylic acid isopropylamide]",≤ 1

# Same assay, conditions: p38α kinase; Table 1 Biological Activity
row,Compound,IC50 [µM]
1,CC(C)NC(=O)c1csc(-c2c(-c3ccc(F)cc3)noc2CNCCc2ccc(O)cc2)n1 [Example 1453],> 1
2,Cc1nc(-c2ccc(F)cc2)c(-c2nc(C(=O)N(C)C)cs2)s1 [Example 1834],> 1
3,COc1ccc(CCNC(=O)c2csc(-c3sc(C)nc3-c3ccc(F)cc3)n2)cc1 [Example 1799],≤ 1
4,CC(C)NC(=O)c1csc(-c2oc(CN3CCN(c4ccc(F)cc4)CC3)nc2-c2ccc(F)cc2)n1 [Example 1254],> 1
5,CC(C)NC(=O)c1csc(-c2c(-c3ccc(F)cc3)n[nH]c2C2CCN(C(=O)c3cccc(Cl)c3[N+](=O)[O-])CC2)n1 [Example 984],> 1
6,"CC(C)NC(=O)c1csc(-c2c(-c3ccc(Cl)cc3)ncn2C2CCNCC2)n1 [Example 2162, 2-|5-(4-Chloro-phenyl)-3-piperidin-4-yl-3H-imidazol-4-yl|-thiazole-4-carboxylic acid isopropylamide]",> 1
7,Cc1ccc(CNC(=O)c2csc(-c3c(-c4ccc(F)cc4)n[nH]c3C3CCNCC3)n2)cc1 [Example 2078],> 1
8,CC(C)N(CCNC(=O)c1csc(-c2c(-c3ccc(F)cc3)n[nH]c2C2CCNCC2)n1)C(C)C [Example 2115],> 1
9,CC(C)NC(=O)c1csc(-c2c(-c3ccc(F)cc3)n[nH]c2C2CCN(C(=O)/C=C/c3ccccc3Cl)CC2)n1 [Example 945],> 1
10,CC(C)NC(=O)c1csc(-c2oc(CN3CCN(Cc4ccc5c(c4)OCO5)CC3)nc2-c2ccc(F)cc2)n1 [Example 1294],> 1
11,Cc1nc(-c2ccc(F)cc2)c(-c2nc(C(=O)Nc3ccccc3C)cs2)s1 [Example 1958],> 1
12,Cc1ccccc1CNCc1nc(-c2ccc(F)cc2)c(-c2nc(C(=O)NC(C)C)cs2)o1 [Example 1100],> 1
13,O=C(NC1CCCC1)c1csc(-c2c(-c3ccc(F)cc3)n[nH]c2C2CCNCC2)n1 [Example 2044],≤ 1
14,CC(C)NC(=O)c1csc(-c2c(-c3ccc(F)cc3)noc2CNCc2ccccc2OC(F)(F)F)n1 [Example 1502],> 1
15,CC(C)NC(=O)c1csc(-c2oc(CNC(C)CO)nc2-c2ccc(F)cc2)n1 (centres unmarked) [Example 1064],≤ 1
16,O=C(NCCc1c[nH]c2ccccc12)c1csc(-c2c(-c3ccc(F)cc3)n[nH]c2C2CCNCC2)n1 [Example 2134],> 1
17,Cc1ccc(F)cc1C(=O)N1CCC(c2[nH]nc(-c3ccc(F)cc3)c2-c2nc(C(=O)NC(C)C)cs2)CC1 [Example 864],> 1
18,COC[C@@H]1CCCN1C(=O)c1csc(-c2sc(C)nc2-c2ccc(F)cc2)n1 [Example 1862],≤ 1
19,CC(C)NC(=O)c1csc(-c2oc(CN(CCc3ccccc3)Cc3ccccc3)nc2-c2ccc(F)cc2)n1 [Example 1286],> 1
20,Cc1ccc(C)c(N2CCN(Cc3nc(-c4ccc(F)cc4)c(-c4nc(C(=O)NC(C)C)cs4)o3)CC2)c1 [Example 1268],> 1
21,Cc1cccc(CNC(=O)c2csc(-c3sc(C)nc3-c3ccc(F)cc3)n2)c1 [Example 1751],≤ 1

row,Compound,IC50 [µM]
1,CC(C)NC(=O)c1csc(-c2c(-c3ccc(F)cc3)n[nH]c2C2CCN(C(=O)c3ccccc3C(=O)c3ccc(O)cc3)CC2)n1 [Example 1036],> 1
2,CC(C)NC(=O)c1csc(-c2oc(CN3CCN(CCc4ccccc4)CC3)nc2-c2ccc(F)cc2)n1 [Example 1265],> 1
3,CC(C)NC(=O)c1csc(-c2c(-c3ccc(F)cc3)n[nH]c2C2CCN(C(=O)C(C)c3ccc(-c4ccccc4)c(F)c3)CC2)n1 (centres unmarked) [Example 1038],> 1
4,CC(C)NC(=O)c1csc(-c2oc(CNCc3ccc(C(C)C)cc3)nc2-c2ccc(F)cc2)n1 [Example 1141],> 1
5,Cc1nc(-c2ccc(F)cc2)c(-c2nc(C(=O)N3CCCN(Cc4ccccc4)CC3)cs2)s1 [Example 1901],> 1
6,Cc1ccc(CCNC(=O)c2csc(-c3sc(C)nc3-c3ccc(F)cc3)n2)cc1 [Example 1768],> 1
7,O=C(NC1CCN(Cc2ccccc2)C1)c1csc(-c2c(-c3ccc(F)cc3)n[nH]c2C2CCNC2)n1 (centres unmarked) [Example 2147],> 1
8,CC(C)NC(=O)c1csc(-c2oc(CNCc3ccccc3OC(F)(F)F)nc2-c2ccc(F)cc2)n1 [Example 1175],≤ 1
9,CC(C)NC(=O)c1csc(-c2c(-c3ccc(F)cc3)noc2CN2CCN(Cc3ccccc3)CC2)n1 [Example 1575],> 1
10,CNC(=O)c1csc(-c2c(-c3ccc(F)cc3)n[nH]c2C2CCNCC2)n1 [Example 2031],≤ 1
11,CC(C)NC(=O)c1csc(-c2c(-c3ccc(F)cc3)noc2CNCc2cccnc2)n1 [Example 1416],> 1
12,COC[C@@H]1CCCN1Cc1nc(-c2ccc(F)cc2)c(-c2nc(C(=O)NC(C)C)cs2)o1 [Example 1212],> 1
13,CCCCN(Cc1ccccc1)C(=O)c1csc(-c2sc(C)nc2-c2ccc(F)cc2)n1 [Example 1894],> 1
14,CC(C)NC(=O)c1csc(-c2c(-c3ccc(F)cc3)noc2CNc2ccc(C(F)(F)F)cc2)n1 [Example 1680],> 1
15,Cc1ccc(N2CCN(Cc3onc(-c4ccc(F)cc4)c3-c3nc(C(=O)NC(C)C)cs3)CC2)c(C)c1 [Example 1593],> 1
16,CC(C)NC(=O)c1csc(-c2c(-c3ccc(F)cc3)n[nH]c2C2CCN(C(=O)c3cccc(F)c3)CC2)n1 [Example 841],> 1
17,CC(C)NC(=O)c1csc(-c2c(-c3ccc(F)cc3)noc2CNc2ccccc2C(=O)c2ccccc2)n1 [Example 1693],> 1
18,CC(C)NC(=O)c1csc(-c2oc(CN(C)C)nc2-c2ccc(F)cc2)n1 [Example 1182],≤ 1
19,Cc1nc(-c2ccc(F)cc2)c(-c2nc(C(=O)NC3CCCCCC3)cs2)s1 [Example 1746],≤ 1
20,"CC(C)NC(=O)c1coc(-c2c(-c3ccc(F)cc3)noc2C2CCNCC2)n1 [Example 2160, 2-|3-(4-Fluoro-phenyl)-5-piperidin-4-yl-isoxazol-4-yl|-oxazole-4-carboxylic acid isopropylamide]",≤ 1
